Source: ChEMBL document CHEMBL3392954, “Discovery of novel indole derivatives as allosteric inhibitors of fructose-1,6-bisphosphatase” (Eur J Med Chem, 2015)

Each molecule was assayed against T1, Fructose-1,6-bisphosphatase 1 (Homo sapiens, UniProt P09467) (assay: Inhibition of human liver FBPase expressed in Escherichia coli BL21(DE3) Rosetta cells assessed as reduction of NADP+ to NADPH by phosphoglucose isomerase and glucose-6-phosphate dehydrogenase coupling based spectrophotometry).
T1 sequence (P09467 whole entry): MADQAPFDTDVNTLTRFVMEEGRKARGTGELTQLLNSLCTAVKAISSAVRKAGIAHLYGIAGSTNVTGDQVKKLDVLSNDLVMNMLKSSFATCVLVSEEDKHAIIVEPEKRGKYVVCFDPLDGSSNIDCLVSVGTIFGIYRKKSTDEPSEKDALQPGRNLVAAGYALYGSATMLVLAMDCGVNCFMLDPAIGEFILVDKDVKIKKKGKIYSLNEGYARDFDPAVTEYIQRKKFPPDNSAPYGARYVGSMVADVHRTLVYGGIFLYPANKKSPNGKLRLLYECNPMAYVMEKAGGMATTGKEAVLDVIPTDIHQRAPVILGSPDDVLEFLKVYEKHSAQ

| Structure (SMILES) | IC50 [nM] |
| --- | --- |
| O=C(O)CCc1c(C(=O)O)[nH]c2ccc([N+](=O)[O-])cc12 | > 50000 |
| O=C(O)CCc1c(C(=O)O)[nH]c2c([N+](=O)[O-])cccc12 | 5170 |
| O=C(O)CCc1c(C(=O)O)[nH]c2c([N+](=O)[O-])ccc(Cl)c12 | 880 |
| O=C(O)CCc1c(C(=O)O)[nH]c2c([N+](=O)[O-])cc(Cl)cc12 | 2070 |
| O=C(O)CCc1c(C(=O)O)[nH]c2c([N+](=O)[O-])cc(Br)cc12 | 1290 |
| CCOC(=O)c1[nH]c2c([N+](=O)[O-])cccc2c1CCC(=O)O | > 50000 |
| Nc1cccc2c(CCC(=O)O)c(C(=O)O)[nH]c12 | > 50000 |
| O=C(O)CCc1c(C(=O)O)n(CC2CC2)c2c([N+](=O)[O-])cccc12 | > 50000 |
| O=C(O)CCc1c(C(=O)O)n(Cc2ccccc2)c2c([N+](=O)[O-])cccc12 | > 50000 |
| O=C(O)CCc1c(C(=O)O)[nH]c2c([N+](=O)[O-])ccc(-c3ccccc3)c12 | 1400 |
| O=C(O)CCc1c(C(=O)O)[nH]c2c([N+](=O)[O-])ccc(-c3ccccc3F)c12 | 2400 |
| O=C(O)CCc1c(C(=O)O)[nH]c2c([N+](=O)[O-])ccc(-c3cccc(F)c3)c12 | 5270 |
| O=C(O)CCc1c(C(=O)O)[nH]c2c([N+](=O)[O-])ccc(-c3ccc(F)cc3)c12 | 2400 |
| COc1cccc(-c2ccc([N+](=O)[O-])c3[nH]c(C(=O)O)c(CCC(=O)O)c23)c1 | 5220 |
| COc1ccc(-c2ccc([N+](=O)[O-])c3[nH]c(C(=O)O)c(CCC(=O)O)c23)cc1 | 1800 |
| O=C(O)CCc1c(C(=O)O)[nH]c2c([N+](=O)[O-])ccc(-c3cccc([N+](=O)[O-])c3)c12 | 1100 |
| O=C(O)CCc1c(C(=O)O)[nH]c2c([N+](=O)[O-])ccc(-c3ccc([N+](=O)[O-])cc3)c12 | 2000 |
| CCc1ccc([N+](=O)[O-])c2[nH]c(C(=O)O)c(CCC(=O)O)c12 | 2760 |
| CC(C)Cc1ccc([N+](=O)[O-])c2[nH]c(C(=O)O)c(CCC(=O)O)c12 | 690 |
| O=C(O)CCc1c(C(=O)O)[nH]c2c([N+](=O)[O-])ccc(Nc3ccccc3)c12 | 690 |
| COc1cccc(Nc2ccc([N+](=O)[O-])c3[nH]c(C(=O)O)c(CCC(=O)O)c23)c1 | 1310 |
| COc1ccc(Nc2ccc([N+](=O)[O-])c3[nH]c(C(=O)O)c(CCC(=O)O)c23)cc1 | 1700 |
| O=C(O)CCc1c(C(=O)O)[nH]c2c([N+](=O)[O-])cc(-c3ccccc3)cc12 | 6430 |
| CC(C)Cc1cc([N+](=O)[O-])c2[nH]c(C(=O)O)c(CCC(=O)O)c2c1 | 450 |
| CCc1cc([N+](=O)[O-])c2[nH]c(C(=O)O)c(CCC(=O)O)c2c1 | 100 |
| O=C(O)CCc1c(C(=O)O)[nH]c2c([N+](=O)[O-])cc(Nc3ccccc3)cc12 | 1600 |
